Data from DBAASP.
In brackets after ≈: the same amount, converted by molar mass.

Columns and labels:
Assay in all cases: ≥ marks a high value that may be exact or a test limit, other limits are often not marked, values filed in µg/mL are converted to µM
[1] = system: Escherichia coli DH5alpha
[2] = system: Corynebacterium glutamicum ATCC 13032
[3] = system: Staphylococcus aureus NCTC 8325-4
[4] = system: Klebsiella pneumoniae NCIMB 13218
[5] = system: Staphylococcus aureus SA113
[6] = system: Salmonella enterica subsp. enterica serovar Typhimurium LT2
[7] = system: Staphylococcus aureus RF122
[8] = system: Cronobacter sakazakii DPC 6440
[9] = system: Staphylococcus aureus Newman
[10] = system: Pseudomonas fluorescens NCIMB 9046
[11] = system: Cronobacter sakazakii DSM 4485
[12] = system: Cronobacter muytjensii ATCC 51329
[13] = system: Cronobacter sakazakii ATCC BAA-894
[14] = system: Escherichia coli NCIMB 11843
[15] = system: Staphylococcus aureus RN4220
[16] = system: Staphylococcus aureus ATCC 12493
[17] = system: Staphylococcus aureus NCTC 10788
[18] = system: Candida albicans NCPF 1467
[19] = system: Escherichia coli NCTC 10418
[20] = system: Staphylococcus aureus ATCC 2592
[21] = system: Candida albicans ATCC 2002
[22] = system: Pseudomonas aeruginosa ATCC 9027
[23] = system: Escherichia coli ATCC 25922
[24] = system: Pseudomonas aeruginosa ATCC 27853
[25] = system: Staphylococcus aureus ATCC 25923
[26] = system: Enterococcus faecalis ATCC 29212
Escherichia coli ML-35p = system: Escherichia coli ML-35p
[27] = system: Staphylococcus aureus ATCC BAA-44
Escherichia coli BL21 = system: Escherichia coli BL21
[28] = system: Staphylococcus epidermidis
Escherichia coli MG1655 = system: Escherichia coli MG1655

SMILES | MIC [3] | MIC [4] | MIC [5] | MIC [6] | MIC [7] | MIC [8] | MIC [9] | MIC [10] | MIC [11] | MIC [12] | MIC [13] | MIC [14] | MIC [15] | MIC [23] | also measured
CC[C@H](C)[C@H](NC(=O)[C@H](Cc1c[nH]c2ccccc12)NC(=O)[C@@H](N)CCCCN)C(=O)N[C@H]1CSSC[C@@H](C(=O)N[C@@H](CCCN=C(N)N)C(=O)N[C@@H](Cc2c[nH]c3ccccc23)C(=O)N[C@@H](CCCN=C(N)N)C(=O)O)NC(=O)[C@H](Cc2ccc(O)cc2)NC(=O)[C@H]([C@@H](C)O)NC(=O)[C@H]([C@@H](C)CC)NC(=O)[C@H](Cc2c[nH]c3ccccc23)NC(=O)[C@H](CCCN=C(N)N)NC(=O)CNC(=O)[C@H](CCCN=C(N)N)NC(=O)[C@H](Cc2ccc(O)cc2)NC(=O)[C@H](Cc2c[nH]c3ccccc23)NC(=O)[C@H](CC(C)C)NC(=O)[C@H](CCCN=C(N)N)NC(=O)[C@H](CCCN=C(N)N)NC1=O [KWICRRLWYRGRWITYCRWR] | – | – | – | – | – | – | – | – | – | – | – | – | – | – | MIC [1]: 12.5 µM (≈ 35.7 µg/mL); MIC [2]: 0.78 µM (≈ 2.23 µg/mL)
CC(C)C[C@H](NC(=O)[C@H](CC(C)C)NC(=O)[C@H](CC(C)C)NC(=O)[C@@H]1CCCN1C(=O)[C@H](CC(C)C)NC(=O)[C@@H](N)Cc1ccccc1)C(=O)N[C@@H](CO)C(=O)N[C@@H](C)C(=O)N[C@@H](CC(C)C)C(=O)N1CCC[C@H]1C(=O)N[C@@H](CO)C(=O)N[C@@H](Cc1ccccc1)C(=O)N[C@@H](CC(C)C)C(=O)N[C@H]1CSSC[C@@H](C(=O)O)NC(=O)[C@H](CCCCN)NC(=O)[C@H](CCCCN)NC(=O)[C@H](Cc2ccccc2)NC(=O)[C@H](C(C)C)NC(=O)[C@H](CC(C)C)NC1=O [FLPLLLSALPSFLCLVFKKC] | – | – | – | – | – | – | – | – | – | – | – | – | – | 33 µM (≈ 74.3 µg/mL) | MIC [16]: ≥ 512 µM; MIC [17]: ≥ 32 µM; MIC [18]: ≥ 512 µM; MIC [19]: ≥ 512 µM; MIC [20]: 17 µM (≈ 38.3 µg/mL); MIC [21]: ≥ 44 µM; MIC [22]: > 44 µM
CC(C)C[C@H](NC(=O)[C@H](C)NC(=O)[C@@H](N)C(C)C)C(=O)N[C@@H](CC(N)=O)C(=O)N[C@@H](CCC(=O)O)C(=O)N[C@@H](CC(N)=O)C(=O)N[C@@H](CC(C)C)C(=O)N[C@@H](CC(C)C)C(=O)N[C@@H](CCCN=C(N)N)C(=O)O [VALNENLLR] | ≥ 625 µM | ≥ 2500 µM | ≥ 1250 µM | ≥ 2500 µM | ≥ 1250 µM | ≥ 625 µM | ≥ 1250 µM | ≥ 2500 µM | ≥ 2500 µM | ≥ 625 µM | ≥ 1250 µM | ≥ 2500 µM | ≥ 1250 µM | – | MIC [24]: 32 µM (≈ 33.3 µg/mL)
CC[C@H](C)[C@H](NC(=O)CN)C(=O)N[C@@H](CCCCN)C(=O)N[C@@H](CC(=O)O)C(=O)N[C@@H](CC(C)C)C(=O)N[C@@H](CC(C)C)C(=O)N[C@@H](CCCCN)C(=O)NCC(=O)N[C@@H](C)C(=O)N[C@@H](C)C(=O)N[C@@H](CCCCN)C(=O)N[C@@H](C)C(=O)N[C@@H](CC(C)C)C(=O)N[C@H](C(=O)N[C@@H](CCCCN)C(=O)N[C@H](C(=O)N[C@H](C(=O)N[C@@H](CC(C)C)C(=O)N[C@@H](CCCCN)C(N)=O)C(C)C)[C@@H](C)O)C(C)C [GIKDLLKGAAKALVKTVLK] | – | – | – | – | – | – | – | – | – | – | – | – | – | 1.7 µM (≈ 3.34 µg/mL) | MIC [26]: 50 µM (≈ 98.3 µg/mL); MIC (Escherichia coli ML-35p): 12.5 µM (≈ 24.6 µg/mL); MIC [24]: 25 µM (≈ 49.1 µg/mL); MIC [27]: 6.3 µM (≈ 12.4 µg/mL); MIC [25]: 4.7 µM (≈ 9.24 µg/mL)
CC(C)C[C@H](NC(=O)[C@H](CC(C)C)NC(=O)[C@H](CC(N)=O)NC(=O)[C@H](CCC(=O)O)NC(=O)[C@H](CC(N)=O)NC(=O)[C@H](CC(C)C)NC(=O)[C@@H](N)C(C)C)C(=O)N[C@@H](CCCCN)C(=O)O [VLNENLLK] | ≥ 1250 µM | ≥ 2500 µM | ≥ 1250 µM | ≥ 2500 µM | ≥ 1250 µM | ≥ 1250 µM | ≥ 1250 µM | ≥ 625 µM | ≥ 1250 µM | ≥ 1250 µM | ≥ 2500 µM | ≥ 2500 µM | ≥ 1250 µM | – | –
CC[C@H](C)[C@H](NC(=O)[C@H](CCCCN)NC(=O)[C@H](CCCN=C(N)N)NC(=O)[C@H](CCCCN)NC(=O)[C@H](CCCCN)NC(=O)[C@H](CCCCN)NC(=O)[C@H](Cc1c[nH]c2ccccc12)NC(=O)[C@H](CCCCN)NC(=O)[C@H](CC(C)C)NC(=O)[C@H](CO)NC(=O)[C@H](Cc1ccccc1)NC(=O)[C@H](CCCN=C(N)N)NC(=O)[C@H](CC(=O)O)NC(=O)[C@H](CCSC)NC(C)=O)C(=O)N[C@@H](CCCN=C(N)N)C(=O)N[C@@H](CCCN=C(N)N)C(=O)N[C@@H](CCCN=C(N)N)C(=O)N[C@@H](CCCN=C(N)N)C(=O)N[C@@H](CCCN=C(N)N)C(=O)N[C@@H](CCCN=C(N)N)C(=O)N[C@@H](CCCN=C(N)N)C(=O)N[C@@H](CCCN=C(N)N)C(=O)N[C@@H](CCCN=C(N)N)C(=O)N[C@@H](CCCN=C(N)N)C(=O)N[C@@H](CCCN=C(N)N)C(N)=O [MDRFSLKWKKKRKIRRRRRRRRRRR] | – | – | – | – | – | – | – | – | – | – | – | – | – | – | MIC (Escherichia coli BL21): 4 µM (≈ 14.5 µg/mL); MIC [28]: 3 µM (≈ 10.9 µg/mL); MIC (Escherichia coli MG1655): 7.5 µM (≈ 27.2 µg/mL)
CC[C@H](C)[C@H](NC(=O)[C@H](CCCCN)NC(=O)CNC(=O)[C@H](CC(C)C)NC(=O)[C@H](Cc1ccccc1)NC(=O)[C@H](CCC(N)=O)NC(=O)[C@H](Cc1ccccc1)NC(=O)[C@@H](N)C(C)C)C(=O)N[C@H](C(=O)N[C@@H](Cc1cnc[nH]1)C(=O)N[C@@H](Cc1cnc[nH]1)C(=O)N[C@H](C(=O)NCC(=O)N[C@@H](CC(N)=O)C(=O)N[C@@H](Cc1ccccc1)C(=O)N[C@H](C(=O)N[C@@H](Cc1cnc[nH]1)C(=O)NCC(=O)N[C@@H](Cc1ccccc1)C(=O)N[C@@H](CO)C(=O)N[C@@H](C)C(=O)N[C@H](C(=O)N[C@@H](Cc1ccccc1)C(N)=O)C(C)C)C(C)C)C(C)C)[C@@H](C)CC [VFQFLGKIIHHVGNFVHGFSAVF] | – | – | – | – | – | – | – | – | – | – | – | – | – | – | MIC (Escherichia coli MG1655): ≥ 64 µM

Further lines, with some results ahead:

MIC [3] | MIC [4] | MIC [5] | MIC [6] | MIC [7] | MIC [8] | MIC [9] | MIC [10] | MIC [11] | MIC [12] | MIC [13] | MIC [14] | MIC [15] | MIC [23] | SMILES | also measured
≥ 625 µM | ≥ 1250 µM | ≥ 625 µM | ≥ 2500 µM | ≥ 1250 µM | ≥ 625 µM | ≥ 1250 µM | ≥ 1250 µM | ≥ 2500 µM | ≥ 2500 µM | ≥ 2500 µM | ≥ 1250 µM | ≥ 1250 µM | – | CC(C)C[C@H](NC(=O)[C@H](CC(N)=O)NC(=O)[C@H](CCC(=O)O)NC(=O)[C@H](CC(N)=O)NC(=O)[C@H](CC(C)C)NC(=O)[C@@H](N)C(C)C)C(=O)N[C@@H](C)C(=O)N[C@@H](CCCN=C(N)N)C(=O)O [VLNENLAR] | –
– | – | – | – | – | – | – | – | – | – | – | – | – | 15 µM (≈ 33.4 µg/mL) | CC(C)C[C@H](NC(=O)[C@H](C)NC(=O)[C@H](CC(C)C)NC(=O)[C@H](CO)NC(=O)[C@H](CC(C)C)NC(=O)[C@@H](N)Cc1ccccc1)C(=O)N[C@@H](C)C(=O)N[C@@H](C)C(=O)N[C@@H](CC(C)C)C(=O)N1CCC[C@H]1C(=O)N[C@@H](CCCCN)C(=O)N[C@@H](Cc1ccccc1)C(=O)N[C@@H](CC(C)C)C(=O)N[C@H]1CSSC[C@@H](C(=O)O)NC(=O)[C@H](CCCCN)NC(=O)[C@H](CCCCN)NC(=O)[C@H](Cc2ccccc2)NC(=O)[C@H](C(C)C)NC(=O)[C@H](CC(C)C)NC1=O [FLSLALAALPKFLCLVFKKC] | MIC [16]: ≥ 32 µM; MIC [17]: ≥ 32 µM; MIC [18]: ≥ 32 µM; MIC [19]: ≥ 512 µM; MIC [25]: 15 µM (≈ 33.4 µg/mL)
